From ChEMBL document CHEMBL6078669, “Stereoisomers of cannabidiols and their pharmacological activities - A potentially novel direction for cannabinoids” (Bioorg Med Chem, 2025)

Tests used:
Cannabinoid receptor 2 [1] = target: T1, Cannabinoid receptor 2 (Homo sapiens, UniProt P34972); assay: Displacement of [3H]HU-243 from CB2 receptor (unknown origin) extracted from green monkey COS-7 cell membrane assessed as inhibition constant incubated for 90 mins; format: cell membranes
[2] = Inhibition of [14C]-arachidonoylethanolamide uptake in rat RBL-2H3 cells assessed as increase in AEA level incubated for 5 mins by scintillation counting; format: functional, cell-based; conditions: RBL-2H3, 5 min
Cannabinoid receptor 1 [3] = target: T2, Cannabinoid receptor 1 (Rattus norvegicus, UniProt P20272); assay: Displacement of [3H]HU-243 from Sabra rat brain synaptosome CB1 receptor assessed as inhibition constant incubated for 90 mins; format: subcellular
T2 sequence (P20272 whole entry): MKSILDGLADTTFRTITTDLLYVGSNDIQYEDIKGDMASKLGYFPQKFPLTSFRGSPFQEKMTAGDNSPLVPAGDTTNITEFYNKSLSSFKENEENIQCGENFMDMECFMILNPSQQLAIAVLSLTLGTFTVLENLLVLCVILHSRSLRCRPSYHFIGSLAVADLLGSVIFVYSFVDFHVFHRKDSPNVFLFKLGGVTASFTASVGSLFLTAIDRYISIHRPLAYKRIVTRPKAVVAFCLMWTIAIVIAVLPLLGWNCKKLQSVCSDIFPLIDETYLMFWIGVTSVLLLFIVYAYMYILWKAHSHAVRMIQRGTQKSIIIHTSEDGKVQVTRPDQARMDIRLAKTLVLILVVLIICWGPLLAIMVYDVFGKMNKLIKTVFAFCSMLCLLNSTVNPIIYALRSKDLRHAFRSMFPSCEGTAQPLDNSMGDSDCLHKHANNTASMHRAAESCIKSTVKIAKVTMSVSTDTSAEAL

Cannabinoid receptor 2 [4] = target: T1, Cannabinoid receptor 2; assay: Binding affinity to CB2 receptor (unknown origin) assessed as inhibition constant
Cannabinoid receptor 1 [5] = target: T3, Cannabinoid receptor 1 (Homo sapiens, UniProt P21554); assay: Binding affinity to CB1 receptor (unknown origin) assessed as inhibition constant
T3 sequence (P21554 whole entry): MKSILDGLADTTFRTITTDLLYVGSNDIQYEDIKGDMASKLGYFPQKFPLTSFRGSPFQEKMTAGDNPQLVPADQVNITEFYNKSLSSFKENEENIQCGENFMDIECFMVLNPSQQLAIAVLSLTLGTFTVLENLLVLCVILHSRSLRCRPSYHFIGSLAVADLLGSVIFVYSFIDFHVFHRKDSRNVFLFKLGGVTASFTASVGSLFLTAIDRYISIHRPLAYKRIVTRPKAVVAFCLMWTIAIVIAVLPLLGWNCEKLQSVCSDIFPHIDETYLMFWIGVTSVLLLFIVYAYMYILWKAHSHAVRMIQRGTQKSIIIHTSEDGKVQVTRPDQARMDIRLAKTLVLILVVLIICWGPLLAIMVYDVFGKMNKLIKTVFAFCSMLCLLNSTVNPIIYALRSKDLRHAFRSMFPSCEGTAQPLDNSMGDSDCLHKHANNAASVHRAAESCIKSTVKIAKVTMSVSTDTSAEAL

[6] = Selectivity ratio of Ki for CB1 receptor (unknown origin) to Ki for CB2 receptor (unknown origin)
Cannabinoid receptor 1 [7] = target: T3, Cannabinoid receptor 1; assay: Displacement of [3H]CP-55,940 from human CB1 receptor extracted from HEK293 cell membrane assessed as inhibition constant incubated for 90 mins by liquid scintillation spectrophotometric analysis; format: cell membranes
Cannabinoid receptor 2 [8] = target: T1, Cannabinoid receptor 2; assay: Displacement of [3H]CP-55,940 from human CB2 receptor extracted from HEK293 cell membrane assessed as inhibition constant incubated for 90 mins by liquid scintillation spectrophotometric analysis; format: cell membranes
Cannabinoid receptor 2 [9] = target: T1, Cannabinoid receptor 2; assay: Agonist activity at human CB2 receptor expressed in HEK293T cells co-transfected with pCRE-Luc plasmid preincubated with compound for 30 mins followed by forskolin addition and measured after 6 hrs by Dual-luciferase assay; format: functional, cell-based
Cannabinoid receptor 1 [10] = target: T3, Cannabinoid receptor 1; assay: Antagonist activity at human CB1 receptor expressed in HEK293T cells co-transfected with pCRE-Luc plasmid preincubated with compound for 30 mins followed by WIN55,212 addition and measured after 6 hrs by Dual-luciferase assay; format: functional, cell-based
D(2) dopamine receptor [11] = target: T4, D(2) dopamine receptor (Homo sapiens, UniProt P14416); assay: Partial agonist activity at D2-high receptor (unknown origin)
T4 sequence (P14416 whole entry): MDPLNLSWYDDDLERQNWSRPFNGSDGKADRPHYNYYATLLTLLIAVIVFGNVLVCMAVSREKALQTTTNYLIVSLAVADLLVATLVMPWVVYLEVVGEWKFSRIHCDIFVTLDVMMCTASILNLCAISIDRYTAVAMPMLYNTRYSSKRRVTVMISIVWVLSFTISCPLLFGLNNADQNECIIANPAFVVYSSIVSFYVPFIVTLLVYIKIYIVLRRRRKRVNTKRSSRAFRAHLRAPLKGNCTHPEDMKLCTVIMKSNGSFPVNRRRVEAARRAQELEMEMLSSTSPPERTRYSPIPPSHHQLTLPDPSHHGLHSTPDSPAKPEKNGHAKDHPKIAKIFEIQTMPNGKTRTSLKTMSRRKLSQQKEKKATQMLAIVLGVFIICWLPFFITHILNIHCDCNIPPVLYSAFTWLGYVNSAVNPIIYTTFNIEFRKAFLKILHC

[12] = target: T5, Transient receptor potential cation channel subfamily V member 2 (Rattus norvegicus, UniProt Q9WUD2); assay: Agonist activity at recombinant rat TRPV2 expressed in HEK293 cells assessed as increase in [Ca2+]i by Fluo-4AM based calcium assay; format: cell-based
T5 sequence (Q9WUD2 whole entry): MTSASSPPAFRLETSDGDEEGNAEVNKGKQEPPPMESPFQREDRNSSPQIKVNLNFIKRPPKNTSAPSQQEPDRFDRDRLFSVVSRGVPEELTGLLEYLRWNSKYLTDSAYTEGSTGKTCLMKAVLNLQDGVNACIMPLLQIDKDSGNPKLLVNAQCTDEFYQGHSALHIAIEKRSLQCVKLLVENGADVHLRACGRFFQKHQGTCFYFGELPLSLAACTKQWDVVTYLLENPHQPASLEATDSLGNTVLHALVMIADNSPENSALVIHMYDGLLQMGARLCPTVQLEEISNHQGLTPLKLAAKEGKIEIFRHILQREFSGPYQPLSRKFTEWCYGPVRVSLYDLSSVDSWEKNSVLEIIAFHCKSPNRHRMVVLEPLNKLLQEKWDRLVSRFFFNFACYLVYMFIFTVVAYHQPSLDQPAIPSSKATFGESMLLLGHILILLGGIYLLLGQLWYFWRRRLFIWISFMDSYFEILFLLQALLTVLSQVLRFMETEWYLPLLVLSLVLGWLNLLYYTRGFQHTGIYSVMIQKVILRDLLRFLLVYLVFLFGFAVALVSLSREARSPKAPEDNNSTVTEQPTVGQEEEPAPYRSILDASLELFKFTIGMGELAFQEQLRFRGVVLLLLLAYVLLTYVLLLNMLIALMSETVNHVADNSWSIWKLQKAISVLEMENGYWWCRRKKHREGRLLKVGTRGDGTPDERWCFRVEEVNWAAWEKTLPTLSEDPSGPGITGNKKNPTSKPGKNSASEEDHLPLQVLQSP

[13] = target: G-protein coupled receptor 55 (Homo sapiens, UniProt Q9Y2T6); assay: Antagonist activity at GPR55 (unknown origin)
Chain of G-protein coupled receptor 55 (Q9Y2T6 whole entry): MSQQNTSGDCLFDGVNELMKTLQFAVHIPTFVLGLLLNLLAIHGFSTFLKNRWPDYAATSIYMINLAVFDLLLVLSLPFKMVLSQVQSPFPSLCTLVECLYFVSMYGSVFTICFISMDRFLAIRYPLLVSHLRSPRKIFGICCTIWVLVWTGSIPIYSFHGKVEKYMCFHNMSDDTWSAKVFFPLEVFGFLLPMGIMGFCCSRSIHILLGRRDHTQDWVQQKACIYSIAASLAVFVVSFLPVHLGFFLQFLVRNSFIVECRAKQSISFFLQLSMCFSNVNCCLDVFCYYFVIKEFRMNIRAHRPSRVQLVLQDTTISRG

[14] = target: Sodium channel protein type 9 subunit alpha (Homo sapiens, UniProt Q15858); assay: Inhibition of human Nav1.7 expressed in HEK293 cells by whole cell electrophysiology recording; format: cell-based
Chain of Sodium channel protein type 9 subunit alpha (Q15858 whole entry): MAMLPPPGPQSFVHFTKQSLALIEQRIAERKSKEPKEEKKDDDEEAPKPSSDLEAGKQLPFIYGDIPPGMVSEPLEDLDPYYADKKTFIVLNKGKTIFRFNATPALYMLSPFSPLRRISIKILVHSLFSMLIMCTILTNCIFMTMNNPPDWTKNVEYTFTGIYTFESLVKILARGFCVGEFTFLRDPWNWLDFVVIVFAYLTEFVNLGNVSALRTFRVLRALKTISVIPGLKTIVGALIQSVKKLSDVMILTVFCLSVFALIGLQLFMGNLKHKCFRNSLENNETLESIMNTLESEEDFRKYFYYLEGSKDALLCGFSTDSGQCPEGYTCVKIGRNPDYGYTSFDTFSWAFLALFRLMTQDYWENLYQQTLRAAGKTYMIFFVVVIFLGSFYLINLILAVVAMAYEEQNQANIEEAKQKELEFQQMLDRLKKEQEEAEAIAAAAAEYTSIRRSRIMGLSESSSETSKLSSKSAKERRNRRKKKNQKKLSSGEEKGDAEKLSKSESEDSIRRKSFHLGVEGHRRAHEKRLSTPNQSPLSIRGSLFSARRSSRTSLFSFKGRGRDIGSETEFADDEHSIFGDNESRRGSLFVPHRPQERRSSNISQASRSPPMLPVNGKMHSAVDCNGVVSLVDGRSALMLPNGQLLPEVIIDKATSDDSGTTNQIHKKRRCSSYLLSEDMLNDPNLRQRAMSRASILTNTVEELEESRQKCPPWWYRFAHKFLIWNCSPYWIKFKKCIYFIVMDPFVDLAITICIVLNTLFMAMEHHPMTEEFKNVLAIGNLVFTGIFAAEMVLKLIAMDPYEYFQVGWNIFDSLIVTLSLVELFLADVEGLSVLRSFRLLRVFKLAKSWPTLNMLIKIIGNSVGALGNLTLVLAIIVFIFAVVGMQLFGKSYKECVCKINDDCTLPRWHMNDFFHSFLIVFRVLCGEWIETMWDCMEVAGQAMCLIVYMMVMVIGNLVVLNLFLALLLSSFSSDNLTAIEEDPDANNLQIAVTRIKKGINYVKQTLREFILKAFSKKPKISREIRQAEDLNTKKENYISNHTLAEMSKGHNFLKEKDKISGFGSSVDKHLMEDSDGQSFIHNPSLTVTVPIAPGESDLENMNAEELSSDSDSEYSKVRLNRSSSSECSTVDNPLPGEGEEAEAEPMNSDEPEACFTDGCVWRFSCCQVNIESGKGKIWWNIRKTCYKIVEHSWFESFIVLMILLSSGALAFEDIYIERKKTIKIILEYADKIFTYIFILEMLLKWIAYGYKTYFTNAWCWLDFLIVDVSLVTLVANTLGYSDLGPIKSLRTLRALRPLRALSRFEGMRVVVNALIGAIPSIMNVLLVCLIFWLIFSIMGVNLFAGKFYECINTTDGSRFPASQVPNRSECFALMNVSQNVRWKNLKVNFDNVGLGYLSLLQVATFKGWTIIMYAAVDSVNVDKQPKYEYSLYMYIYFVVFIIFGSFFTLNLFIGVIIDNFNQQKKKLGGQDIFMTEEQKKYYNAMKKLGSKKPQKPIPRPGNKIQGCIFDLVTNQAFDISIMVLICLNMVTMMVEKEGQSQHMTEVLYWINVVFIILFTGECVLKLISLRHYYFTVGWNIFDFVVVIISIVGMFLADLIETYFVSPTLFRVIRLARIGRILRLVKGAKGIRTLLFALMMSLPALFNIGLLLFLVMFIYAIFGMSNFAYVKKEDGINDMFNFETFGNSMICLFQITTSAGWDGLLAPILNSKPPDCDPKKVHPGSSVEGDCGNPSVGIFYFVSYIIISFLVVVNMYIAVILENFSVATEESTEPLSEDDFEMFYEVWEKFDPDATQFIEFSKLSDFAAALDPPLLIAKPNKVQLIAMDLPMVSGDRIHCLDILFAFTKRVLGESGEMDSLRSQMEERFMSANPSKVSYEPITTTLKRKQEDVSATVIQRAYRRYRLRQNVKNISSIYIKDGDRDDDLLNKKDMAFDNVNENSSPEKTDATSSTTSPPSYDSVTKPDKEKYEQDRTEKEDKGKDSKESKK

[15] = target: Transient receptor potential cation channel subfamily A member 1 (Rattus norvegicus, UniProt Q6RI86); assay: Agonist activity at recombinant rat TRPA1 expressed in HEK293 cells assessed as increase in [Ca2+]i by Fluo-4AM based calcium assay; format: cell-based
[16] = target: T6, Transient receptor potential cation channel subfamily V member 1 (Homo sapiens, UniProt Q8NER1); assay: Agonist activity at recombinant human TRPV1 expressed in HEK293 cells assessed as increase in [Ca2+]i level by Fluo-4AM based calcium assay; format: cell-based
T6 sequence (Q8NER1 whole entry): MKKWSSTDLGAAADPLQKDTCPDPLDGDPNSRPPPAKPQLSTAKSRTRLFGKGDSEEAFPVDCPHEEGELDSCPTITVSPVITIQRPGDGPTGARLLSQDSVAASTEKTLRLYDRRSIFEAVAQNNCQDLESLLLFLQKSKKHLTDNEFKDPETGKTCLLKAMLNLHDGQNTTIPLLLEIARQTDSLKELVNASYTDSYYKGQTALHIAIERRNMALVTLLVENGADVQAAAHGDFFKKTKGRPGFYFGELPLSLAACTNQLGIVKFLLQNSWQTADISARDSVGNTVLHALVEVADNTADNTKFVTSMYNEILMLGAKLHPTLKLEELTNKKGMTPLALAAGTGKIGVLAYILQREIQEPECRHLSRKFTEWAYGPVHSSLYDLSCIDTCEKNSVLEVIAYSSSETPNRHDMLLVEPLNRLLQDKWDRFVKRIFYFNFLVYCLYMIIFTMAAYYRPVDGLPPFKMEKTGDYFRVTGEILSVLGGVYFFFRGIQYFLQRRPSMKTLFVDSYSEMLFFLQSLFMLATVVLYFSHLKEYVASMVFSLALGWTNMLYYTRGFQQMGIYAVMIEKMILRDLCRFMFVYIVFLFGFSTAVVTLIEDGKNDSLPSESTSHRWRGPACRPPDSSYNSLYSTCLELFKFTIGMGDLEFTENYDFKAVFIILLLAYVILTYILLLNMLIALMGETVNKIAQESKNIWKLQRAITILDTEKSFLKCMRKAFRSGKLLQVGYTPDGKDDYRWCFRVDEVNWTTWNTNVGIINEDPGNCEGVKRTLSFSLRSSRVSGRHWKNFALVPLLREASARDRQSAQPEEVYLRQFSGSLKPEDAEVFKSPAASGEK

[17] = target: Transient receptor potential cation channel subfamily M member 8 (Rattus norvegicus, UniProt Q8R455); assay: Antagonist activity at recombinant rat TRPM8 expressed in HEK293 cells assessed as inhibition of icillin-induced intracellular calcium level preincubated with compound for 5 mins followed by icillin addition by Fluo-4AM based calcium assay; format: cell-based
[18] = target: T7, 5-hydroxytryptamine receptor 1A (Homo sapiens, UniProt P08908); assay: Agonist activity at 5-HT1A (unknown origin); format: functional
T7 sequence (P08908 whole entry): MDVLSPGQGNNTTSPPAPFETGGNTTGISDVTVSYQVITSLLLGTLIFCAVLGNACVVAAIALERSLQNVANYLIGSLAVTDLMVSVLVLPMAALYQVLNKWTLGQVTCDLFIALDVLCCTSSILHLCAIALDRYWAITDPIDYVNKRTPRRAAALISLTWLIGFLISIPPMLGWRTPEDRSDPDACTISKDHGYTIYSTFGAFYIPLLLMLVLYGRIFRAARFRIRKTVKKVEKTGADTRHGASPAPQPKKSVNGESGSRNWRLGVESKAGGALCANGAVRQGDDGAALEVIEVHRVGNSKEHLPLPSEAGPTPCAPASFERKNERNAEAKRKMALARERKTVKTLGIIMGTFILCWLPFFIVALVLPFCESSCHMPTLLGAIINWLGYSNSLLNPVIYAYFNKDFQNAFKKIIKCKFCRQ

D(2) dopamine receptor [19] = target: T4, D(2) dopamine receptor; assay: Partial agonist activity at D2-low receptor (unknown origin)
[20] = target: T6, Transient receptor potential cation channel subfamily V member 1; assay: Agonist activity at human TRPV1 receptor expressed in HEK293 cells assessed as effect on [Ca2+]i preincubated with capsazepine for 30 mins followed by compound addition by Fluo-3 probe based fluorescence analysis; format: cell-based
[21] = target: T8, Fatty-acid amide hydrolase 1 (Mus musculus, UniProt O08914); assay: Inhibition of FAAH-mediated [14C]-AEA hydrolysis in mouse N18TG2 cell membrane incubated for 30 mins by scintillation counting; format: cell membranes
T8 sequence (O08914 whole entry): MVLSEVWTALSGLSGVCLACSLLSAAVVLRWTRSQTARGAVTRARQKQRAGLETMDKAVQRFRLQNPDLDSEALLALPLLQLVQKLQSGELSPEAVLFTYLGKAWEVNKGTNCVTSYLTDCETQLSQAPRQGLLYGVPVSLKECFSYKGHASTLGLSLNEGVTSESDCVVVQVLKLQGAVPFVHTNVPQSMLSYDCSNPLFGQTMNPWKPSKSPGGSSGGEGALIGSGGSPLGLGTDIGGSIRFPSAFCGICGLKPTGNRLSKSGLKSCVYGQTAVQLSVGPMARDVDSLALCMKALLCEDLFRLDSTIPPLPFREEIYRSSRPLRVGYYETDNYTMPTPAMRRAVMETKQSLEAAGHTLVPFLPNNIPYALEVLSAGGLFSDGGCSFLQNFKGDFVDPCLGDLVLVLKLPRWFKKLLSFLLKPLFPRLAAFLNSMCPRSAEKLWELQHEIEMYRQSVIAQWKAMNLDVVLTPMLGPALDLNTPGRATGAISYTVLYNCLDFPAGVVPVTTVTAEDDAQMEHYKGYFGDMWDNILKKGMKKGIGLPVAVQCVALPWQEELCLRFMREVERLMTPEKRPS

[22] = target: T9, Equilibrative nucleoside transporter 1 (Homo sapiens, UniProt Q99808); assay: Inhibition of ENT-1 (unknown origin)
T9 sequence (Q99808 whole entry): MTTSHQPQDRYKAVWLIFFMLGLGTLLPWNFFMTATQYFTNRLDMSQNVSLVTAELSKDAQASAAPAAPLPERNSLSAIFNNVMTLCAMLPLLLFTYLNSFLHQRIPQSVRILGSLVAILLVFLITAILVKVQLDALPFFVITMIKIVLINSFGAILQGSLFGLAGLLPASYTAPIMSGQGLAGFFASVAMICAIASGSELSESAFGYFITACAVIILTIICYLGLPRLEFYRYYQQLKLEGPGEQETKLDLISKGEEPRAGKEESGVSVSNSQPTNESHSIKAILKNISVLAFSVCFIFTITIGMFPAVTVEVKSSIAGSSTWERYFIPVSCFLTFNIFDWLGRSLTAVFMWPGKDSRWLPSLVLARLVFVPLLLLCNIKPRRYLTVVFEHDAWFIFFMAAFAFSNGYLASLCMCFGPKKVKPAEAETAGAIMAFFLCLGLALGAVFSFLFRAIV

Homo sapiens = organism: Homo sapiens; assay: Selectivity ratio of Ki for human CB1 receptor extracted from HEK293 cell membrane to Ki for human CB2 receptor extracted from HEK293 cell membrane
[23] = Selectivity index, ratio of Ki for Sabra rat brain synaptosome CB1 receptor to Ki for human CB2 receptor extracted from CHO cell membrane
Cannabinoid receptor 1 [24] = target: T2, Cannabinoid receptor 1; assay: Displacement of [3H]CP-55,940 from Sabra rat brain synaptosome CB1 receptor assessed as inhibition constant incubated for 90 mins; format: subcellular
Cannabinoid receptor 2 [25] = target: T1, Cannabinoid receptor 2; assay: Displacement of [3H]CP-55,940 from human CB2 receptor extracted from CHO cell membrane assessed as inhibition constant incubated for 90 mins; format: cell membranes

T1 sequence (P34972 whole entry): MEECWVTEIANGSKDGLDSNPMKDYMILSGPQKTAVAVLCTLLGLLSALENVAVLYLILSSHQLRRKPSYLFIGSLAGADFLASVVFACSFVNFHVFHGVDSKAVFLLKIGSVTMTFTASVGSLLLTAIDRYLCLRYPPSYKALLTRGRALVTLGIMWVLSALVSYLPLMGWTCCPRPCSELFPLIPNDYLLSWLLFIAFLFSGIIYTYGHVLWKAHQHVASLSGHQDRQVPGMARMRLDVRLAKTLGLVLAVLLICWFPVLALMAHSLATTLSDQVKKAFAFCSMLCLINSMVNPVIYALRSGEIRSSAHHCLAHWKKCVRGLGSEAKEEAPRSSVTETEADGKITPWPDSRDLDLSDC

With `C=C(C)[C@H]1CCC(C)=C[C@@H]1c1c(O)cc(C(C)(C)CCCCCC)cc1O` the Ki (Cannabinoid receptor 2 [1]) was 211 nM, the IC50 [2] was 10000 nM and the Ki (Cannabinoid receptor 1 [3]) was 17.4 nM.

For `C=C(C)[C@@H]1CCC(C)=C[C@H]1c1c(OC)cc(C(C)(C)CCCCCC)cc1OC`, the Ki (Cannabinoid receptor 2 [1]) was > 1000 nM and the Ki (Cannabinoid receptor 1 [3]) was > 1000 nM.

Compound `C=C(C)[C@H]1CCC(C(=O)O)=C[C@@H]1c1c(O)cc(CCCCC)cc1O` has a Ki (Cannabinoid receptor 2 [4]) of 313 nM, a Ki (Cannabinoid receptor 1 [5]) of 13.2 nM and a Ratio Ki [6] of 0.04.

For `C=C(C)C1CCC(C)=CC1O` (centres undefined), the Ki (Cannabinoid receptor 1 [7]) was > 1000 nM and the Ki (Cannabinoid receptor 2 [8]) was 375 nM.

For `CCCCCCC(C)(C)c1cc(OC)c([C@@H]2C=C(CO)[C@@H]3C[C@H]2C3(C)C)c(OC)c1` [ONTERNABEZ], the Ki (Cannabinoid receptor 1 [5]) was > 1000 nM.

In the case of `C=C(C)[C@@H]1CCC(CO)=C[C@H]1c1c(O)cc(C(C)(C)CCCCCC)cc1O`, the Ki (Cannabinoid receptor 2 [1]) is reported as 671 nM, the IC50 [2] is reported as 12500 nM and the Ki (Cannabinoid receptor 1 [3]) is reported as ≥ 4000 nM.

`C=C(C)[C@H]1CCC(C)=C[C@@H]1c1c(O)cc(CCCCC)c(C(=O)OCC(O)CCC)c1O` (some centres undefined) showed an EC50 (Cannabinoid receptor 2 [9]) of 90 nM and an IC50 (Cannabinoid receptor 1 [10]) of 210 nM.

In the case of `C=C(C)[C@@H]1CCC(C)=C[C@H]1c1c(O)cc(CCCCC)cc1O` [CANNABIDIOL], the Ki (D(2) dopamine receptor [11]) is reported as 0.066 nM, the EC50 [12] is reported as 1250 nM and the IC50 [13] is reported as 445 nM. The IC50 [14] was 1820 nM, the EC50 [15] was 110 nM and the EC50 [16] was 1000 nM. For the same compound, the IC50 [2] was 22000 nM, the IC50 [17] was 60 nM and the EC50 [18] was 16000 nM. For the same compound, the Ki (D(2) dopamine receptor [19]) was 2800 nM, the EC50 [20] was 3200 nM and the IC50 [21] was 27500 nM. For the same compound, the Ki [22] was 250 nM.

With `C=C(C)[C@@H]1CCC(C(=O)O)=C[C@H]1c1c(O)cc(CCCCC)cc1O` the Ki (Cannabinoid receptor 2 [1]) was > 1000 nM and the Ki (Cannabinoid receptor 1 [3]) was > 1000 nM.

Compound `C=C(C)[C@H]1CCC(C(=O)O)=C[C@@H]1c1c(O)cc(C(C)(C)CCCCCC)cc1O` has a Ki (Cannabinoid receptor 2 [4]) of 155 nM, a Ki (Cannabinoid receptor 1 [5]) of 5.8 nM and a Ratio Ki [6] of 0.03.

`C=C(C)[C@H]1CCC(C)=C[C@@H]1c1c(O)cc(CCCCC)c(C(=O)OCCO)c1O` showed a Ki (Cannabinoid receptor 1 [7]) of 259 nM.

In the case of `C=C(C)[C@@H]1CCC(C)=C[C@H]1c1c(O)cc(CCCCC)c(C(=O)OC)c1O`, the Ratio Ki (Homo sapiens) is reported as 3.9, the Ki (Cannabinoid receptor 1 [7]) is reported as 3.1 nM and the Ki (Cannabinoid receptor 2 [8]) is reported as 0.8 nM.

In the case of `C=C(C)[C@@H]1CCC(C)=C[C@H]1c1c(O)cc(C(C)(C)CCCCCC)cc1O`, the Ki (Cannabinoid receptor 2 [1]) is reported as 1800 nM, the IC50 [2] is reported as 14000 nM and the Ki (Cannabinoid receptor 1 [3]) is reported as > 10000 nM.

`CCCCCc1cc(O)c([C@H]2C=C(CO)CC[C@@H]2C(C)C)c(O)c1` gave a Ratio Ki [23] of 6.3, a Ki (Cannabinoid receptor 1 [24]) of 76.7 nM and a Ki (Cannabinoid receptor 2 [25]) of 12.1 nM.
